pIC50: −log10 of the molar value. Active and inactive are the calls of the source. No cut-off for these calls is given here.
Tests used:
[1] = molecular target: Stimulator of interferon genes protein (Homo sapiens) (UniProt Q86WV6); experiment: Activation of STING-mediated immune response in human HCT-116 cells transfected with ISRE reporter assessed as increase in cGAMP-induced ISRE activation at 25 to 100 uM preincubated with compound for 1 hrs followed by cGAMP addition and measured after 48 hrs by luciferase reporter gene assay; type: cell-based; conditions: filed as activator, dose 25-100 µM, time 49.0 hrs
[2] = Toxicity in BALB/c mouse implanted with mouse CT26 cells assessed as effect on body weight at 200 mg/kg, po administered for 2 weeks and measured on day 15; type: organism-based; conditions: in vivo, 360 h, time 15 day
[3] = Toxicity in BALB/c mouse implanted with mouse CT26 cells assessed as effect on body weight at 200 mg/kg, po preadministered with compound for 2 weeks followed by reinoculation of CT26 cells and measured on day 19; type: organism-based; conditions: in vivo, 456 h, time 19 day
[4] = Cmax in BALB/c mouse at 5 mg/kg, iv measured after 24 hrs by LC-MS/MS analysis; type: ADME, organism-based; parameters: dose 5 mg/kg, time 24 hrs, route iv; conditions: in vivo
[5] = Half-life in BALB/c mouse at 20 mg/kg, po measured after 24 hrs by LC-MS/MS analysis; type: ADME, organism-based; conditions: in vivo
[6] = AUC (0 to t) in BALB/c mouse at 5 mg/kg, iv measured after 24 hrs by LC-MS/MS analysis; type: ADME, organism-based; parameters: dose 5 mg/kg, time 24 hrs, route iv; conditions: in vivo
CT26 [7] = experiment: Antitumor activity against mouse CT26 cells implanted in BALB/c mouse assessed as tumor growth inhibition at 200 mg/kg, po administered for 2 weeks and measured on day 15 relative to control; type: functional; conditions: CT26, 360 h, time 15 day, read-out: TGI
[8] = Metabolic stability in mouse liver microsome assessed as parent compound remaining measured after 30 mins by LC/MS analysis; type: ADME; conditions: liver microsomes, read-out: Stability
CT26 [9] = experiment: Immunological memory derived antitumor activity against mouse CT26 cells implanted in BALB/c mouse assessed as tumor growth regression at 200 mg/kg, po preadministered with compound for 2 weeks followed by reinoculation of CT26 cells and measured on day 19 relative to control; type: functional; conditions: time 19 day
HCT-116 = experiment: Cytotoxicity against human HCT-116 cells assessed as reduction in cell viability upto 200 uM incubated for 48 hrs in the presence of cGAMP by celltiter 96 aqueous one solution cell proliferation assay; type: functional, cell-based
[10] = molecular target: Stimulator of interferon genes protein (Homo sapiens) (UniProt Q86WV6); experiment: Activation of STING-mediated immune response in human HCT-116 cells transfected with ISRE reporter assessed as increase in cGAMP-induced ISRE activation preincubated with compound for 1 hrs followed by cGAMP addition and measured after 48 hrs by luciferase reporter gene assay; type: cell-based; conditions: filed as activator, dose <= 200.0 µM, time 49.0 hrs
[11] = MRT (0 to t) in BALB/c mouse at 5 mg/kg, iv measured after 24 hrs by LC-MS/MS analysis; type: ADME, organism-based; conditions: in vivo
Cytochrome P450 1A2 = molecular target: T1, Cytochrome P450 1A2 (Homo sapiens, UniProt P05177); experiment: Inhibition of CYP1A2 in human liver microsomes; type: ADME, Microsome
T1 sequence (P05177 whole entry): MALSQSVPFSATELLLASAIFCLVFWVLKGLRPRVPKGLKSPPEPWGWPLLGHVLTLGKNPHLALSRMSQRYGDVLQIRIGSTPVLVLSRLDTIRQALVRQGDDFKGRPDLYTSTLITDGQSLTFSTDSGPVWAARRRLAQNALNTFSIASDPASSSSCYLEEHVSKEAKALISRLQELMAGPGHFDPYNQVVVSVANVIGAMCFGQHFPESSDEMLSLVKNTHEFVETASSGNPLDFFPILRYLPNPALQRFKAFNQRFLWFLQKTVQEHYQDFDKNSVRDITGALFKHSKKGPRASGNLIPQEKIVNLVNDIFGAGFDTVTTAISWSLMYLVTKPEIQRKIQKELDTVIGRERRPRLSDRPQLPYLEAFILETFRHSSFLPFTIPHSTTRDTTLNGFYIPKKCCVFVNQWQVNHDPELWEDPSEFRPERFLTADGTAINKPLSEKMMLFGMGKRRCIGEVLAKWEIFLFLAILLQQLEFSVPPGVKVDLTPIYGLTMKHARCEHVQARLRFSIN

[12] = MRT (0 to infinity) in BALB/c mouse at 5 mg/kg, iv measured after 24 hrs by LC-MS/MS analysis; type: ADME, organism-based; conditions: in vivo
[13] = Toxicity in BALB/c mouse implanted with mouse CT26 cells assessed as effect on body weight at 200 mg/kg, po administered for 2 weeks and measured on day 15 in the presence of anti-PD-L1 antibody; type: organism-based; conditions: in vivo, 360 h, time 15 day
[14] = AUC (0 to t) in BALB/c mouse at 20 mg/kg, po measured after 24 hrs by LC-MS/MS analysis; type: ADME, organism-based; parameters: time 24 hrs, dose 20 mg/kg, route po; conditions: in vivo
[15] = Protein binding in human plasma assessed as unbound fraction by equilibrium dialysis based LC-MS/MS analysis; type: ADME, cell-free
THP-1 = experiment: Cytotoxicity against human THP-1 cells assessed as reduction in cell viability upto 50 uM incubated for 24 hrs in the presence of cGAMP by celltiter 96 aqueous one solution cell proliferation assay; type: toxicity, cell-based; conditions: thp-1, 24 h
[16] = Metabolic stability in mouse liver microsome assessed as half-life by LC/MS analysis; type: ADME; conditions: liver microsomes
[17] = Metabolic stability in mouse liver microsome assessed as intrinsic clearance by LC/MS analysis; type: ADME; conditions: liver microsomes, read-out: CLH
[18] = Metabolic stability in human liver microsome assessed as parent compound remaining measured after 30 mins by LC/MS analysis; type: ADME; conditions: liver microsomes, read-out: Stability
[19] = Toxicity in BALB/c mouse implanted with mouse CT26 cells assessed as effect on body weight at 200 mg/kg, po preadministered with compound for 2 weeks followed by reinoculation of CT26 cells and measured on day 19 in the presence of anti-PD-L1 antibody; type: organism-based; conditions: in vivo, 456 h, time 19 day

Chain of Stimulator of interferon genes protein (Homo sapiens) (Q86WV6 whole entry): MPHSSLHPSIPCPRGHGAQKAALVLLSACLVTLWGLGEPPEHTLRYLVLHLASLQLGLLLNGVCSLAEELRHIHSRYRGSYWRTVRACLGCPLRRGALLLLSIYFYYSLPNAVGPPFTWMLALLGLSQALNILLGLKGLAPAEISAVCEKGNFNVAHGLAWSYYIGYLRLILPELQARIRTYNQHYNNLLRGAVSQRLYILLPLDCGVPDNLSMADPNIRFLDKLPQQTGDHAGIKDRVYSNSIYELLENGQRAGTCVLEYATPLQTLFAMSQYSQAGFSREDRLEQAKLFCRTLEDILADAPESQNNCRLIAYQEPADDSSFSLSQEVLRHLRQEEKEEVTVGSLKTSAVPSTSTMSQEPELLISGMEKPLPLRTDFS

- Activity [1]: Active
- Cmax [4]: 9540 ng/mL
- half-life [5]: 2.8 h
- AUC(0-t) at 24 h [6]: 30400 ng·h/mL
- remaining at 0.5 h [8]: 65%
- Activity [10]: Dose-Dependent Effect
- MRT last at 24 h [11]: 2.83 h
- pIC50 (Cytochrome P450 1A2): < 5.00
- MRT inf [12]: 3.21 h
- AUC(0-t) at 24 h [14]: 79400 ng·h/mL
- fraction unbound [15]: 0.18
- half-life [16]: 0.987 h
- CLint scaled [17]: 92.1 mL/min/kg
- remaining at 0.5 h [18]: 87%
Structure (SMILES): Cn1nc(Cc2ccc(NS(N)(=O)=O)cc2)c2ccccc2c1=O
- Activity [2]: Non-Toxic
- Activity [3]: Non-Toxic
- inhibition in vivo at 200 mg/kg (CT26 [7]): 55%
- Activity (CT26 [9]): 100%
- Activity (HCT-116): Not toxic
- Activity [13]: Non-Toxic
- Activity (THP-1): Non-Toxic
- Activity [19]: Non-Toxic
